In patent US9394295B2, “Antibacterial homopiperidinyl substituted 3,4-dihydro-1H-[1,8]naphthyridinones” (Janssen Sciences Ireland UC, priority 2011, dated 2016):
In brackets after ≈: the same amount, converted by molar mass. Where two headings read alike, the source gives them in different places.

Tests used:
[1] = target: T1, S. aureus ATCC 29213 FabI (Staphylococcus aureus, UniProt Q6GI75); assay: Staphylococcus aureus FabI enzyme inhibition assay; type: biochemical; conditions: 30 minutes at room temperature, NADH consumption
T1 sequence (Q6GI75 1-256): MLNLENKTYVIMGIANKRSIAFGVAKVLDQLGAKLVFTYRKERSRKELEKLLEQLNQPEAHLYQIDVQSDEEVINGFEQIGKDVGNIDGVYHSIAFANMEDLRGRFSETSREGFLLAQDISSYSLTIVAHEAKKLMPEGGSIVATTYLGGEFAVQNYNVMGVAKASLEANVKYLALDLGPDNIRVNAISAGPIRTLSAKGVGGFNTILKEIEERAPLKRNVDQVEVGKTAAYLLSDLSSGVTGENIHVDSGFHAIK
Protocol: FabI enzyme inhibition assays were carried out in half-area, 384-well microtitre plates. Compounds were evaluated in 40-μl assay mixtures containing 100 mM NaADA, pH 6.5 (ADA=N-[2-acetamido]-2iminodiacetic acid), 250 μM crotonoyl-CoA, 625 μM NADH and 50 μg/ml S. aureus ATCC 29213 FabI Inhibitors were typically varied over the range of 50 to 0.39 μM. The reaction mixtures were incubated for 30 minutes at room temperature and the reaction was stopped by adding 200 mM Tris buffer (pH 9.0) to create a pH-shift. The consumption of NADH was monitored by measuring the change in absorbance at […]. By comparing sample readings to those of negative (absence of compound) and positive (absence of enzyme) controls, the percent inhibition of enzymatic activity of the compounds was determined. A best-fit curve is fitted by a minimum of squares method. From this an IC50-value (expressed in μg/ml), resulting in 50% inhibition of enzymatic activity, was obtained.

[2] = system: Staphylococcus aureus ATCC 29213; assay: Antibacterial susceptibility testing: IC90 determination (STA); type: cell-based; conditions: ATCC29213, S. aureus ATCC 29213, 90% inhibitory concentration for bacterial growth, read-out: STA (361.159) IC90
Protocol: (§1) The following bacteria were used: Staphylococcus aureus ATCC 29213, methicillin-resistant Staphylococcus aureus (MRSA) ATCC 700788 and Escherichia coli ATCC 35218. The bacteria used in this study were grown overnight in flasks containing 100 ml Mueller-Hinton broth (Difco cat. nr. 0757-17) in sterile de-ionized water, with shaking, at 37° C. Stocks were store at −70° C. until use.
(§2) Bacteria were incubated on a tryptic soy agar plate containing 5% sheep blood (Becton Dickinson cat. nr. 254053) for 18-24 hours at 35° C. in aerobic conditions (first passage). For the second passage, fresh Mueller-Hinton broth is inoculated with 5-10 colonies and grown overnight at 35° C. until turbidity (reaching log-phase) in aerobic conditions is reached. The bacterial suspension is then adjusted to 0.5 McFarland density and further diluted 1:100 in Mueller Hinton broth medium. This is used as inoculum.
(§3) MIC assays were performed by the broth microdilution method in a 96-well format (flat-bottom microtitre plates) with a final volume of 0.1 ml Mueller Hinton broth containing two-fold serial dilutions of compounds and inoculated with 5×10^5 CFU/ml of bacteria (standard inoculum size according to CLSI guidelines). Inhibitors are typically varied over the range of 63 to 0.49 μM. The final DMSO concentration in the assay was 1.25% (maximum tolerable DMSO concentration=6%). In the assays where the effect of human serum on the activity of the compounds against S. aureus was tested, human serum was added at a final concentration of 10%. The plates were incubated at 35° C. for 16-20 hours. At the end of incubation the bacterial growth was quantified fluorometrically. For this, resazurin was added to all wells and the plates were re-incubated. The incubation time is dependent on the type of bacteria. A change in color from blue to pink indicated the growth of bacteria. The fluorescence was read in computer-controlled fluorometer (Fluoroskan Ascent FL, Labsystems) at an excitation wavelength 540 nm and an emission wavelength of 590 nm. The % growth inhibition achieved by the compounds was calculated according to standard methods. The IC90 (expressed in μg/ml) was defined as the 90% inhibitory concentration for bacterial growth. A panel of reference compounds were simultaneously tested for QC approval.

[3] = system: S. aureus; assay: Antibacterial susceptibility testing: IC90 determination with 10% human serum (STA + 10% HS); type: cell-based; conditions: Staphylococcus aureus; S. aureus with human serum at final concentration of 10%; read-out: STA + 10% HS (361.169) IC90
Protocol: as §1, §2, §3
The results are depicted in the table D2 below (STA+10% HS).

[4] = Cytotoxicity MTT assay (TOX HELAM); type: cell-based; conditions: human, HelaM cells, read-out: TOX HELAM (222.125) CC50
Protocol: Cytotoxicity of the compounds was evaluated using the MTT assay. Human HelaM cells grown in 96-well plates were exposed to serial dilutions of the tested compounds (final volume of 0.2 ml) and incubated for 72 hours at 37° C. and 5% CO2. Inhibitors are typically varied over the range of 25 to 0.8 μM. The final DMSO concentration in the assay is 0.5%. MTT (3-(4,5-Dimethylthiazol-2-yl)-2,5-diphenyltetrazolium bromide, a tetrazole) was added and reduced to purple formazan only in living cells. Solubilization of the formazan crystals was achieved by adding 100 μl 2-propanol. Cell viability was determined by measuring the absorbance of the reduced formazan, giving a purple color, at 540 nm and 690 nm. The absorbance measured at 690 nm was automatically subtracted from the absorbance at 540 nm, to eliminate the effects of non-specific absorption. The percent cytotoxicity achieved by the compounds was calculated according to standard methods. Cytotoxicity is reported as CC50, the concentration that causes a 50% reduction in cell viability.
The results are depicted in the table D2 below (TOX HELAM).

[5] = system: S. aureus ATCC 29213; assay: MIC broth microdilution (CLSI), S. aureus ATCC 29213; type: cell-based; conditions: Staphylococcus aureus, ATCC 29213 / MSSA, reference strain MSSA
Protocol: (§4) Minimum Inhibitory Concentrations (MICs) were determined in accordance with the Clinical and Laboratory Standards Institute (CLSI) methodology against aerobic bacteria (CLSI M07-A8) (see Clinical and Laboratory Standards Institute. 2009. Methods for dilution antimicrobial susceptibility tests for bacteria that grow aerobically. CLSI document M07-A8, Vol. 29, No. 2.) by the broth microdilution method with cation-adjusted Mueller-Hinton broth (CA-MHB) medium for the majority of organisms, except for Haemophilus influenza, where Haemophilis test medium (HTM) broth was used. Descriptions of the individual organisms can be found in the table. Where possible, ATCC standard strains were tested.
(§5) The inoculum density for the susceptibility testing was standardized to give a final inoculum of approximately 5×10^5 CFU/mL.
(§6) Stock solutions of the compounds were prepared in DMSO at concentrations of 1 mg/mL. Linezolid was prepared in DMSO at a concentration of 2 mg/mL. Stock solutions of all compounds were diluted into CA-MHB to give a range of two-fold dilutions, depending upon the sensitivity of the organism being tested.

[6] = system: S. aureus ATCC 43300; assay: MIC broth microdilution (CLSI), S. aureus ATCC 43300; type: cell-based; conditions: Staphylococcus aureus, ATCC 43300 / MRSA, reference strain MRSA
Protocol: as §4, §5, §6

[7] = system: E. coli tolC mutant; assay: MIC broth microdilution (CLSI), E. coli tolC mutant; type: cell-based; conditions: Escherichia coli
Protocol: as §4, §5, §6

[8] = system: E. coli ATCC 25922; assay: MIC broth microdilution (CLSI), E. coli ATCC 25922; type: cell-based; conditions: Escherichia coli, ATCC25922
Protocol: as §4, §5, §6

[9] = system: H. influenza ATCC 49247; assay: MIC broth microdilution (CLSI), H. influenza ATCC 49247; type: cell-based; conditions: Haemophilus influenzae, ATCC49247, HTM broth
Protocol: as §4, §5, §6

[10] = In vivo pharmacokinetic and oral bioavailability; conditions: male Swiss mice; for half-life: read-out: Half life (t1/2) (converted)
Protocol: The in vivo pharmacokinetics and oral bioavailability of the compound of the examples was/is investigated in male Swiss mice (fed) following single intravenous (i.v.) bolus and oral (p.o.) administration. For the i.v. and p.o. solution formulations, the compound was/is dissolved in a 20% HP-β-CD solution. The pH of the formulations was/is around pH 4. All i.v. formulations were isotonic.

[11] = mouse, plasma, iv, i.v. 2.5 mg/kg
[12] = mouse, plasma, po, p.o. 10 mg/kg

IC50 [1] [nM]	IC90 [2] [µg/mL]	IC90 [3] [µg/mL]	melting point [°C]	Vdz ([10]; i.v. 2.5 mg/kg) [L/kg]	AUC(0-inf) [10, 11] [ng·h/mL]	C0 ([10]; mouse, plasma, iv, i.v. 2.5 mg/kg, 20% HP-β-CD solution) [ng/mL]	half-life [10, 11] [h]	clearance ([10]; mouse, plasma, iv, i.v. 2.5 mg/kg, read-out: Plasma clearance Cl (converted)) [mL/min/kg]	bioavailability ([10]; mouse, plasma, po, p.o. 10 mg/kg vs i.v. 2.5 mg/kg) [%]	AUC(0-inf) [10, 12] [ng·h/mL]	Tmax [10, 12] [h]	Cmax ([10]; mouse, plasma, po, p.o. 10 mg/kg, 20% HP-β-CD solution) [ng/mL]	half-life [10, 12] [h]	SMILES	CC50 at 72 h [4] [µg/mL]	MIC90 [5] [µg/mL]	MIC90 [6] [µg/mL]	MIC90 [7] [µg/mL]	MIC90 [8] [µg/mL]	MIC90 [9] [µg/mL]
1040	3.24 (≈ 8.61 µM)	5.76	156	–	–	–	–	–	–	–	–	–	–	O=C1CCc2cc(/C=C/C(=O)N3CCCN(c4ccccc4)CC3)cnc2N1 [Co. No. 11]	> 9.46	–	–	–	–	–
867	0.09 (≈ 0.223 µM)	0.2	–	2.0	2160	3400	1.2	20	78	7090	0.5	3740	2	COc1ccccc1C1=CCCN(C(=O)/C=C/c2cnc3c(c2)CCC(=O)N3)CC1 [Co. No. 10]	> 10.1	–	–	–	–	–

SMILES	IC50 [1] [nM]	IC90 [2] [µg/mL]	IC90 [3] [µg/mL]	melting point [°C]	Vdz ([10]; i.v. 2.5 mg/kg) [L/kg]	AUC(0-inf) [10, 11] [ng·h/mL]	C0 ([10]; mouse, plasma, iv, i.v. 2.5 mg/kg, 20% HP-β-CD solution) [ng/mL]	half-life [10, 11] [h]	clearance ([10]; mouse, plasma, iv, i.v. 2.5 mg/kg, read-out: Plasma clearance Cl (converted)) [mL/min/kg]	bioavailability ([10]; mouse, plasma, po, p.o. 10 mg/kg vs i.v. 2.5 mg/kg) [%]	AUC(0-inf) [10, 12] [ng·h/mL]	Tmax [10, 12] [h]	Cmax ([10]; mouse, plasma, po, p.o. 10 mg/kg, 20% HP-β-CD solution) [ng/mL]	half-life [10, 12] [h]	CC50 at 72 h [4] [µg/mL]	MIC90 [5] [µg/mL]	MIC90 [6] [µg/mL]	MIC90 [7] [µg/mL]	MIC90 [8] [µg/mL]	MIC90 [9] [µg/mL]
O=C1CCc2cc(/C=C/C(=O)N3CCC=C(c4cccc(Cl)c4)CC3)cnc2N1 [Co. No. 19]	1050	0.35 (≈ 0.858 µM)	1.38	–	–	–	–	–	–	–	–	–	–	–	> 20.4	0.125 (≈ 0.306 µM)	0.25 (≈ 0.613 µM)	1 (≈ 2.45 µM)	> 8	> 8
